Numbers after ± are expanded uncertainties.
Conditions: Liquid, Vibrating tube method

CCCCCCCCCC [decane]
Conditions | mass density [kg/m3]
323.14 K, 29147 kPa | 730.4 ± 2.1
323.14 K, 29286 kPa | 730.6 ± 2.1
323.14 K, 29368 kPa | 730.6 ± 2.1
323.14 K, 29415 kPa | 730.5 ± 2.1
323.14 K, 29637 kPa | 730.8 ± 2.1
323.14 K, 29675 kPa | 730.8 ± 2.1
323.14 K, 29724 kPa | 730.9 ± 2.1
323.14 K, 29765 kPa | 730.8 ± 2.1
323.14 K, 29800 kPa | 730.9 ± 2.1
323.14 K, 29840 kPa | 731 ± 2.1
323.14 K, 29872 kPa | 731 ± 2.1
323.14 K, 29908 kPa | 730.9 ± 2.1
323.14 K, 29935 kPa | 731 ± 2.1
323.14 K, 29962 kPa | 730.9 ± 2.1
323.14 K, 29999 kPa | 731.1 ± 2.1
323.14 K, 30026 kPa | 731 ± 2.1
323.14 K, 30054 kPa | 731.1 ± 2.1
323.14 K, 30082 kPa | 731.1 ± 2.1
323.14 K, 30114 kPa | 731.1 ± 2.1
323.14 K, 30147 kPa | 731.1 ± 2.1
323.14 K, 30180 kPa | 731.2 ± 2.1
323.14 K, 30217 kPa | 731.1 ± 2.1
323.14 K, 30240 kPa | 731.2 ± 2.1
323.14 K, 30273 kPa | 731.2 ± 2.1
323.14 K, 30306 kPa | 731.2 ± 2.1
323.14 K, 30353 kPa | 731.3 ± 2.1
323.14 K, 30381 kPa | 731.3 ± 2.1
323.14 K, 30409 kPa | 731.3 ± 2.1
323.14 K, 30447 kPa | 731.3 ± 2.1
323.14 K, 30475 kPa | 731.3 ± 2.1
323.14 K, 30513 kPa | 731.3 ± 2.1
323.14 K, 30547 kPa | 731.4 ± 2.1
323.14 K, 30586 kPa | 731.4 ± 2.1
323.14 K, 30624 kPa | 731.4 ± 2.1
323.14 K, 30652 kPa | 731.6 ± 2.1
323.14 K, 30686 kPa | 731.6 ± 2.1
323.14 K, 30720 kPa | 731.5 ± 2.1
323.14 K, 30753 kPa | 731.7 ± 2.1
323.14 K, 30787 kPa | 731.5 ± 2.1
323.14 K, 30816 kPa | 731.5 ± 2.1
323.14 K, 30851 kPa | 731.7 ± 2.1
323.14 K, 30890 kPa | 731.5 ± 2.1
323.14 K, 30919 kPa | 731.6 ± 2.1
323.14 K, 30964 kPa | 731.6 ± 2.1
323.14 K, 30993 kPa | 731.6 ± 2.1
323.14 K, 31028 kPa | 731.6 ± 2.1
323.14 K, 31068 kPa | 731.8 ± 2.1
323.14 K, 31097 kPa | 731.8 ± 2.1
323.14 K, 31257 kPa | 731.9 ± 2.1
323.14 K, 31307 kPa | 732 ± 2.1
323.14 K, 31343 kPa | 731.9 ± 2.1
323.14 K, 31374 kPa | 732 ± 2.1
323.14 K, 31421 kPa | 732.1 ± 2.1
323.14 K, 31463 kPa | 732 ± 2.1
323.14 K, 31495 kPa | 732.1 ± 2.1
323.14 K, 31537 kPa | 732.1 ± 2.1
323.14 K, 31569 kPa | 732 ± 2.1
323.14 K, 31606 kPa | 732.1 ± 2.1
323.14 K, 31636 kPa | 732.2 ± 2.1
323.14 K, 31661 kPa | 732.2 ± 2.1
323.14 K, 31690 kPa | 732.1 ± 2.1
323.14 K, 31715 kPa | 732.2 ± 2.1
323.14 K, 31736 kPa | 732.2 ± 2.1
323.14 K, 31774 kPa | 732.2 ± 2.1
323.14 K, 31812 kPa | 732.3 ± 2.1
323.14 K, 31838 kPa | 732.2 ± 2.1
323.14 K, 31872 kPa | 732.3 ± 2.1
323.14 K, 31911 kPa | 732.5 ± 2.1
323.14 K, 31949 kPa | 732.3 ± 2.1
323.14 K, 31979 kPa | 732.3 ± 2.1
323.14 K, 32017 kPa | 732.4 ± 2.1
323.14 K, 32056 kPa | 732.4 ± 2.1
323.14 K, 32082 kPa | 732.5 ± 2.1
323.14 K, 32116 kPa | 732.5 ± 2.1
323.14 K, 32143 kPa | 732.5 ± 2.1
323.14 K, 32175 kPa | 732.5 ± 2.1
323.14 K, 32205 kPa | 732.5 ± 2.1
323.14 K, 32236 kPa | 732.4 ± 2.1
323.14 K, 32266 kPa | 732.6 ± 2.1
323.14 K, 32305 kPa | 732.5 ± 2.1
323.14 K, 32332 kPa | 732.6 ± 2.1
323.14 K, 32363 kPa | 732.6 ± 2.1
323.14 K, 32403 kPa | 732.7 ± 2.1
323.14 K, 32438 kPa | 732.7 ± 2.1
323.14 K, 32465 kPa | 732.8 ± 2.1
323.14 K, 32522 kPa | 732.8 ± 2.1
323.14 K, 32717 kPa | 732.9 ± 2.1
323.14 K, 32817 kPa | 733 ± 2.1
323.14 K, 32841 kPa | 733 ± 2.1
323.14 K, 32902 kPa | 733 ± 2.1
323.14 K, 32934 kPa | 733.1 ± 2.1
323.14 K, 32966 kPa | 732.9 ± 2.1
323.14 K, 32994 kPa | 733.1 ± 2.1
323.14 K, 33023 kPa | 733 ± 2.1
323.14 K, 33048 kPa | 733 ± 2.1
323.14 K, 33069 kPa | 733.1 ± 2.1
323.14 K, 33090 kPa | 733.2 ± 2.1
323.14 K, 33114 kPa | 733.2 ± 2.1
323.14 K, 33147 kPa | 733.2 ± 2.1
323.14 K, 33173 kPa | 733.2 ± 2.1
323.14 K, 33193 kPa | 733.3 ± 2.1
323.14 K, 33219 kPa | 733.3 ± 2.1
323.14 K, 33249 kPa | 733.2 ± 2.1
323.14 K, 33274 kPa | 733.3 ± 2.1
323.14 K, 33300 kPa | 733.3 ± 2.1
323.14 K, 33334 kPa | 733.3 ± 2.1
323.14 K, 33356 kPa | 733.2 ± 2.1
323.14 K, 33387 kPa | 733.4 ± 2.1
323.14 K, 33504 kPa | 733.4 ± 2.1
323.14 K, 33553 kPa | 733.5 ± 2.1
323.14 K, 33615 kPa | 733.5 ± 2.1
323.14 K, 33644 kPa | 733.5 ± 2.1
323.14 K, 33671 kPa | 733.6 ± 2.1
323.14 K, 33690 kPa | 733.5 ± 2.1
323.14 K, 33720 kPa | 733.5 ± 2.1
323.14 K, 33749 kPa | 733.6 ± 2.1
323.14 K, 33775 kPa | 733.6 ± 2.1
323.14 K, 33801 kPa | 733.6 ± 2.1
323.14 K, 33824 kPa | 733.6 ± 2.1
323.14 K, 33858 kPa | 733.7 ± 2.1
323.14 K, 33895 kPa | 733.7 ± 2.1
323.14 K, 33921 kPa | 733.8 ± 2.1
323.14 K, 33948 kPa | 733.7 ± 2.1
323.14 K, 33971 kPa | 733.8 ± 2.1
323.14 K, 34266 kPa | 733.9 ± 2.1
323.14 K, 34292 kPa | 734 ± 2.1
323.14 K, 34329 kPa | 733.9 ± 2.1
323.14 K, 34363 kPa | 733.9 ± 2.1
323.15 K, 688 kPa | 707.4 ± 2
323.15 K, 762 kPa | 707.5 ± 2
323.15 K, 781 kPa | 707.5 ± 2
323.15 K, 802 kPa | 707.6 ± 2
323.15 K, 828 kPa | 707.5 ± 2
323.15 K, 851 kPa | 707.6 ± 2
323.15 K, 875 kPa | 707.7 ± 2
323.15 K, 894 kPa | 707.6 ± 2
323.15 K, 924 kPa | 707.7 ± 2
